{
  "source": "ChEMBL document CHEMBL4616608",
  "about": "“Discovery of a lead series of potent benzodiazepine 5-HT2C receptor agonists with high selectivity in functional and binding assays” (Bioorg Med Chem Lett, 2020)",
  "key": {"in vivo [1]": {"assay": "in vivo", "settings": "rat, plasma, po, 10 mg/kg"}, "in vivo [2]": {"assay": "in vivo", "settings": "rat, brain, po, 10 mg/kg"}, "in vivo [3]": {"assay": "in vivo", "settings": "rat, cerebrospinal fluid, po, 10 mg/kg"}},
  "data": [
    {"smiles": "CC1(C)CN2CCNCc3ccc(F)c1c32", "values": [
      {"measurement": "concentration at 1 h", "setting": "in vivo [1]", "result": 608, "unit": "ng/mL"},
      {"measurement": "concentration at 1 h", "setting": "in vivo [2]", "result": 8860, "unit": "ng/g"},
      {"measurement": "concentration at 1 h", "setting": "in vivo [3]", "result": 170, "unit": "ng/mL"}
    ]}
  ]
}
